Assay results reported in patent US20220202774A1, “PHARMACEUTICAL COMPOSITION FOR PREVENTION OR TREATMENT OF SPINAL CORD INJURY OR SPINAL STENOSIS” (NEUROBIT SCIENCE CO., LTD., priority 2019, published 2022).
Where two headings read alike, the source gives them in different places.

Tests used:
[1] = tested on: IL-1β mRNA; experiment: RT-PCR of IL-1β mRNA in cauda equina of chronic mechanical allodynia-induced rats; type: in vivo, Sprague-Dawley rats
Description: (§1) Only rats with a weight in the range of 350 to 380 g and in which chronic mechanical allodynia (2.5-4.0 g) was induced on the 28th day of compression of the cauda equina were selected as the experimental group. The rats were randomly assigned to three experimental groups treated with a vehicle, celecoxib, or the compound according to the present invention.
(§2) Celecoxib (Sigma, St. Louis, Mo.) or the compound according to the present invention was dissolved in methyl pyrrolidone:Tween-80:saline (1:1:8, 100 μl) and injected intraperitoneally at a dose of 2, 5, or 10 mg/kg. The vehicle group was injected with 1-methyl-2-pyrrolidone (1-methyl-2-pyrrolidone:Tween-80:saline (1:1:8)) at an equal dose.
(§3) At the time of the peak effect (30 minutes after injection of drug), the rats were anesthetized by injecting chloral hydrate (500 mg/kg) and perfused with 0.1 M PBS (pH 7.4), followed by perfusion with a solution containing 4% paraformaldehyde added to PBS.
(§4) For analysis at the molecular level, the rats were perfused with 0.1 M PBS, and a 20 mm-thick section of the cauda equina with the site of injury at the center was isolated and kept frozen at −80° C. until use.
(§5) RT-PCR of TNF-α, IL-1β, IL-6, iNOS, and GAPDH was performed. […]

[2] = tested on: chronic mechanical allodynia-induced rats; experiment: Paw withdrawal threshold (von Frey) in chronic mechanical allodynia-induced rats after compression of the cauda equina; type: in vivo, Sprague-Dawley rats
Description: For experiments related to the present invention, a total of 167 male Sprague-Dawley rats (250 to 270 g, Samtako, Osan, Korea) were used. The rats were kept in an environment of room temperature (23±1° C.) and 60±10% humidity under a 12-hour light/12-hour dark cycle (light on from 07:30 to 19:30) and given free access to water and food. The rats were housed individually in cages (410×282×153 mm, clear polycarbonate) lined with aspen shaving bedding and fed a commercial diet (5L79, PMI Nutrition International, St Louis, Mo.) and a commercial standard feed (Lab Diet 5L791 Purina Mills, Richmond, Ind.). All animal experiments were performed in accordance with the guidelines of the Animal Protection Committee of Kyung Hee University (Permission No. KHUASP(SE)-15-006) and in compliance with the ethical guidelines of the International Association for the Study of Pain.
More specifically, the rats were anesthetized by administering chloral hydrate (500 mg/kg) as an intraperitoneal injection, the backside of each rat was shaved, and the L4 to S2 vertebral plates were exposed.
Next, the ligamenta flava between L4 and L5 were removed. […]
Mechanical allodynia was assessed by detecting responses to stimulation with calibrated von Frey filaments and evaluated in terms of paw withdrawal threshold (PWT). […]

[3] = tested on: iNOS mRNA; experiment: RT-PCR of iNOS mRNA in cauda equina of chronic mechanical allodynia-induced rats; type: in vivo, Sprague-Dawley rats; settings: 30 minutes after administering
Description: as §1, §2, §3, §4, §5

[4] = tested on: PGE2; experiment: PGE2 level in cauda equina fibers by ELISA; type: in vivo, Sprague-Dawley rats
Description: as §1, §2, §4
Levels of PEG2 in the cauda equina fibers were analyzed using a PEG2 ELISA kit (Monoclonal, Cayman Chemical Ann Arbor, Mich.) according to the manufacturer's instructions.
An experiment was performed using rats administered with celecoxib and the compound according to the present invention to confirm through RT-PCR whether production of inflammatory mediators is inhibited. Another experiment was performed to confirm through ELISA whether production of PGE2 is inhibited.

[5] = tested on: TNF-α mRNA; experiment: RT-PCR of TNF-α mRNA in cauda equina of chronic mechanical allodynia-induced rats; type: in vivo, Sprague-Dawley rats; settings: 30 minutes after administering
Description: as §1, §2, §3, §4, §5

[6] = tested on: IL-6 mRNA; experiment: RT-PCR of IL-6 mRNA in cauda equina of chronic mechanical allodynia-induced rats; type: in vivo, Sprague-Dawley rats; settings: 30 minutes after administering
Description: as §1, §2, §3, §4, §5

[7] = tested on: LPS-induced PGE2 production in RAW 264.7 (a murine macrophage cell line); experiment: Inhibition of production of LPS-induced PGE2 by macrophage cell line; type: cell-based; settings: Mus musculus
Description: RAW 264.7 (a murine macrophage cell line) was obtained from Korea Cell Line Bank (KCLB). RAW 264.7 was cultured in Dulbecco's Modified Eagle Medium (DMEM) containing 10% fetal bovine serum (FBS), penicillin (100 units/mL), and streptomycin sulfate (100 μg/mL) at 37° C. and in a humidified atmosphere of 5% carbon dioxide in air.
Using DMEM, 1 mL each of RAW 264.7 with a concentration of 5×10^5 cells/mL was seeded in 24 wells. The seeded cells were left overnight, the medium was changed, and then the drug was treated at an appropriate concentration. After incubating for 1 hour, LPS was treated at 1 μg/ml, followed by incubation for 24 hours (or an appropriate length of time). The supernatant was taken and diluted 5-fold. 150 μl of an assay buffer was added to Non-Specific Binding (NSB) wells, and 100 μl of the assay buffer was added to zero standard (Bo) wells. 100 μl of standard sample and 50 μl of PGE2 conjugates were added to the remaining wells (excluding the NSB wells). 50 μl of PGE2 antibody solution was added to the wells and shaken for 2 hours. The contents of each well were suctioned off, and the wells were washed 5 times with wash buffer. 200 μl of para-nitrophenyl phosphate (pNPP) substrate was added to all wells. After storing the wells at room temperature (in a clean bench) for 1 hour, 50 μl of a stop solution was added, and absorbance was measured at 405 nm. […]

[8] = tested on: RAW 264.7 (the murine macrophage cell line); experiment: Cytotoxicity of macrophages (MTT assay); type: cell-based; settings: Mus musculus, RAW264.7; RAW 264.7, LPS 1 μg/ml, 24 hours; read-out: Cell viability(μM) (IC50, MTT assay)
Description: The physiological activity of 3-(4-chlorophenyl)-4-(4-aminosulfonyl-phenyl)-1-methyl-1H-pyrrole-2,5-dione prepared according to Example 2 has been expressed in terms of IC50, which is the concentration at which there is 50% inhibition of the activity of an enzyme. On the other hand, for the cytotoxicity of the compounds according to the present invention, cell viability values (IC50) were measured using the MTT assay.
RAW 264.7 (the murine macrophage cell line) was cultured in DMEM containing 10% FBS, penicillin (100 units/ml), and streptomycin sulfate (100 μg/ml) at 37° C. and in a humidified atmosphere of 5% carbon dioxide in air. Cells were collected using centrifugation and a scraper. The cells were added at a concentration of 1×10^5 cells/well to wells of a 96-well plate containing Roswell Park Memorial Institute (RPMI) 1640 medium, which includes 10% FBS. 3 beta, 4 beta-epoxy-8a-isobutyryloxyguaia-1(10),11, (13)-diene-12.6a-olide was dissolved in methylsulfoxide (DMSO) as a solvent. […] After one night, samples and LPS (1 μg/ml) were added to the wells, and the plate was incubated for 24 hours. […]

With `CN1C(=O)C(c2ccc(Cl)cc2)=C(c2ccc(S(N)(=O)=O)cc2)C1=O` [3-(4-chlorophenyl)-4-(4-aminosulfonyl-phenyl)-1-methyl-1H-pyrrole-2,5-dione] the “expression of IL-1β mRNA” value [1] was “significantly reduced”, the “PWT compared to the vehicle group” value ([2]; 2, 5, 10 mg/kg intraperitoneal, 30 minutes after injecting) was “increased significantly in a dose-dependent manner” and the “duration of analgesic effect” value ([2]; high dose, intraperitoneal) was 3 h. For the same compound, the “expression of iNOS mRNA” value [3] was “significantly reduced”, the “PGE2 production compared to the vehicle group” value [4] was “significantly reduced” and the “expression of TNF-α mRNA” value [5] was “significantly reduced”. The “expression of IL-6 mRNA” value [6] was “significantly reduced”, the IC50 ([7]; RAW264.7, 24 h, RAW 264.7, LPS 1 μg/ml, 24 hours, read-out: IC50(μM) PGE2) was 0.0087 µM and the IC50 ([7]; RAW264.7, RAW 264.7, LPS-induced, text/FIG. 2, read-out: IC50 value for inhibition of PGE2 production) was 0.00595 µM. For the same compound, the IC50 [8] was over 10 µM.
